From patent publication US7601511B2, “Biotin-facilitated transport in gram negative bacteria” (priority 2003, dated 2009)

Key:
E. coli MG1655 = experiment: Effect of added compounds on uptake of biotinylated peptide (competition / block); format: cell-based, Escherichia coli; settings: 31 amino acid peptide, sampled after 10 minutes
Procedure: (§1) Uptake assays. Minimal 37° C. overnights were diluted into fresh minimal media and incubated at 37° C. until they reached an OD550 of 0.5. The 10 and 31 amino acid randomized biotinylated peptides were added to the media at a concentration of 1 μg per mL of culture. After addition of the peptide to the culture, 1 mL aliquots were extracted at time intervals up to an hour, washed twice of extracellular peptide using fresh minimal media, then boiled with SDS-PAGE gradient sample buffer. Samples were run on a 10-16% tricine gradient gel (Schägger et al., 1987, Anal. Biochem. 166:368-379) and transferred to nitrocellulose membranes. The resulting Western blots were treated with NeutrAvidin Horseradish Peroxidase Conjugate and SuperSignal West Dura Extended Duration Chemiluminescent Substrate. The membranes were incubated for 5-10 minutes then exposed to X-ray film for 1-10 minutes. Bands on the film were quantified using the AlphaEase 5.5 Densitometry ProGram from Alpha Innotech.
(§2) One mL samples were extracted 10 minutes after the addition of the peptide and analyzed by SDS PAGE as previously described.

S. aureus = experiment: Effect of added biotin on uptake of biotinylated peptide (competition); format: cell-based, Staphylococcus aureus; settings: 31 amino acid peptide; equimolar or 10× equimolar amounts, added five minutes before peptide
Procedure: as §1, §2

[1] = equimolar or 10× equimolar amounts, added five minutes before peptide

| Molecule | effect on uptake of biotinylated peptide in E. coli (E. coli MG1655; [1]) | effect on uptake of biotinylated peptide in S. aureus (S. aureus) | effect on uptake of biotinylated peptide in E. coli (E. coli MG1655; CCCP 50 μM added prior to peptide) |
| --- | --- | --- | --- |
| Cc1ncc(C[n+]2csc(CCO)c2C)c(N)n1 [thiamine] | no effect |  |  |
| avidin: protein known to tightly bind biotin, purchased from Sigma | could competitively inhibit |  |  |
| O=C(O)CCCC[C@@H]1SC[C@@H]2NC(=O)N[C@@H]21 [biotin] | could be blocked | no effect |  |
| bovine serum albumin: similarly sized protein used as control | no effect |  |  |
| N#CC(C#N)=NNc1cccc(Cl)c1 [CCCP, carbonyl cyanide m-chlorophenylhydrazone] |  |  | uptake is blocked |
